Assays:
hGPR119 = biological target: T1, hGPR119 (Homo sapiens, UniProt Q8TDV5); experiment: In vitro cyclic AMP assay (Cisbio dynamic 2 HTRF kit) in CHO-hGPR119 cells; format: cell-based; settings: cAMP; for activation at 1 µM: 1 h, compound at 1 μM, 60 min, read-out: Induction (% induction at 1 μM)
T1 construct: expressed in transfected cells; host or cells: CHO
T1 sequence (Q8TDV5 1-335): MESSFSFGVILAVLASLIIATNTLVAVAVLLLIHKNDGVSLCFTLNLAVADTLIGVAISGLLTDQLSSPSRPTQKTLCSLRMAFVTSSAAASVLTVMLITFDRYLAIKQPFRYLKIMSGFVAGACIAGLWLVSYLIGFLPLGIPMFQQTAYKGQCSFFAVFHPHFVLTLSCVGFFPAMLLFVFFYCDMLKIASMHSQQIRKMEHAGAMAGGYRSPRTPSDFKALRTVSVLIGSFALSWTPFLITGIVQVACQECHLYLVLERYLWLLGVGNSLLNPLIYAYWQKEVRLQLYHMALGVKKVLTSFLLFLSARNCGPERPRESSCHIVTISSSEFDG

Male SD rats = experiment: Oral glucose tolerance test in Sprague-Dawley rats; format: in vivo; settings: 3 mpk and 10 mpk, glucose 2 g/kg
Description: (§1) Male SD rats (8-10 weeks) were grouped based on basal glucose levels and animals were fasted for 16 hours. Glucose level of each animal was estimated in blood collected from tail vein before animals were dosed orally with 0.5% Tween 80 and 0.5% NaCMC (vehicle control) and compounds at 3 and 10 mpk (n=5). After 30 minutes of compound dosing, blood glucose was again estimated and 2 g/kg/10 ml (20%) of Glucose solution was administered orally to all the animals. Blood glucose was estimated at 15, 30, 60, 90 and 120 minutes time points after glucose administration. Accu-Check active blood glucose meter was utilised for estimation of blood from tail vein.
Glucose reduction observed in animals treated with GPR119 agonists is represented in terms of % AUC reduction. A greater glucose reduction in oral glucose tolerance test indicates the compound's efficacy in this rodent species.

Male C57BL/6 mice = experiment: Oral glucose tolerance test in C57BL/6 mice; format: in vivo; settings: 3 mpk and 10 mpk, glucose 2 g/kg
Description: as §1, with “C57BL/6 mice” for “SD rats”
Glucose reduction observed in animals treated with compounds of present invention is represented in terms of % AUC reduction. A greater glucose reduction in oral glucose tolerance test indicates the compound's efficacy in this rodent species.

Compound | activation at 1 µM (hGPR119) [%] | EC50 (hGPR119) [µM] | glucose reduction (% AUC reduction) in oral glucose tolerance test (Male SD rats) | glucose reduction (% AUC reduction) in oral glucose tolerance test (Male C57BL/6 mice)
CC(C)c1noc(N2CCC([C@H](C)Oc3nc4ccc(-c5ccc(S(C)(=O)=O)nc5)nc4s3)CC2)n1 [Compound 1082, (S)-3-isopropyl-5-(4-(1-((5-(6-(methylsulfonyl)pyridin-3-yl)thiazolo[5,4-b]pyridin-2-yl)oxy)ethyl)piperidin-1-yl)-1,2,4-oxadiazole] | 82 | < 0.025 | significant dose dependent glucose reduction | significant dose dependent glucose reduction
CCCc1cnc(N2CCC([C@H](C)Oc3nc4ccc(-c5ccc(S(C)(=O)=O)nc5)nc4s3)CC2)nc1 [Compound 1099, (S)-5-(6-(methylsulfonyl)pyridin-3-yl)-2-(1-(1-(5-propylpyrimidin-2-yl)piperidin-4-yl)ethoxy)thiazolo[5,4-b]pyridine] | 81 | < 0.025 | significant dose dependent glucose reduction | significant dose dependent glucose reduction
CCc1cnc(N2CCC([C@H](C)Oc3nc4ccc(-c5ccc(S(C)(=O)=O)nc5)nc4s3)CC2)nc1 [Compound 1106, (S)-2-(1-(1-(5-ethylpyrimidin-2-yl)piperidin-4-yl)ethoxy)-5-(6-(methylsulfonyl)pyridin-3-yl)thiazolo[5,4-b]pyridine] | 75 | < 0.025 | significant dose dependent glucose reduction | significant dose dependent glucose reduction
CC(C)c1noc(N2CCC([C@H](C)Oc3nc4ccc(-c5cnc(Cl)nc5)nc4s3)CC2)n1 [Compound 1119, (S)-5-(4-(1-((5-(2-chloropyrimidin-5-yl)thiazolo[5,4-b]pyridin-2-yl)oxy)ethyl)piperidin-1-yl)-3-isopropyl-1,2,4-oxadiazole] | 75 | < 0.025 | significant dose dependent glucose reduction | significant dose dependent glucose reduction
CCc1cnc(N2CCC([C@H](C)Oc3nc4ccc(-c5cnc(Cl)nc5)nc4s3)CC2)nc1 [Compound 1135, 2-((S)-1-(1-(5-ethylpyrimidin-2-yl)piperidin-4-yl)ethoxy)-5-(2-chloropyrimidin-5-yl)thiazolo[5,4-b]pyridine] | 86 | < 0.025 | significant dose dependent glucose reduction | significant dose dependent glucose reduction

Reference: US10526345B2, “Compounds as GPR119 agonists” (Mankind Pharma Ltd., priority 2016, dated 2020)
